Data on 23 molecules can be found in PubChem BioAssay (NCI).

What all share (assay): growth of human tumour cells (NCI), 48 h
In assay [1] the test system is KM12 colon.
For assay [2], the system named is SK-MEL-28 melanoma.
Assay [3] relates to 786-0 renal.
The subject of assay [4] is HCT-15 colon.
The subject of assay [5] is UACC-257 melanoma.
The test system of assay [6] is ACHN renal.
Assay [7] relates to SK-OV-3 ovarian.
Assay [8] has as its system MCF7 breast.
The subject of assay [9] is EKVX NSCLC.
Assay [10] relates to SF-539 CNS.

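Step 1: Grow cells in 96-well plates. Step 2: Expose to compound for 48 hours at 5 concentrations. Step 3: Interpolate endpoints linearly; if unreached, use highest concentration. At the GI50, growth is halved. The concentration for full growth arrest is given as TGI.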

On to `N#Cc1c(N)n(-c2cccc(C(=O)O)c2)c(=O)c2cc([N+](=O)[O-])ccc12`, for which the TGI in [1], in assay [2], in assay [3], in assay [4], in assay [5] and in assay [6] was above 100 µM each time.
For `CSc1nc(Nc2cccc(C(F)(F)F)c2)c2c(N)nn(C)c2n1`, the TGI in assay [1], in assay [2], in [3], in assay [4], in [5] and in [6] was above 100 µM throughout. The TGI in [7] is above 100 µM.
Turning to `CCCCCCOC(=O)/C=C/[C@]1(CO)C/C(=C/CC(C(C)C)C(C)C)C(=O)O1`, the TGI worked out at 33.3 µM in [1]; 30.4 µM in [8]; 23.2 µM in assay [2]; 17.6 µM in assay [3]; 28.6 µM in [4]; 13.4 µM in [9]. Also, the TGI in assay [5] is 31.6 µM; in assay [6] it was 20.7 µM; in [7], 37.7 µM.
For `CC(OC(C)(C)C)[C@H](NC(=O)OCC(Cl)(Cl)Cl)C(=O)O` (stereo partly drawn), the TGI in assay [1], in [2], in assay [4], in assay [10], in assay [9] and in [5] was above 100 µM in each case. Further, the TGI in assay [6] and in assay [7] was above 100 µM throughout.
Regarding `C=C(C)[C@@H]1CC[C@]2(C(=O)NC3CCCCC3)CC[C@]3(C)[C@H](CC[C@@H]4[C@@]5(C)CCCNC(C)(C)[C@@H]5CC[C@]43C)[C@@H]12`, the GI50 in assay [1] is 1.92 µM; in [10], 1.69 µM; in assay [5], 1.72 µM; in [7], 1.77 µM. The TGI in [1] worked out at 3.64 µM; in assay [10] it was 3.11 µM; in assay [5], 3.31 µM; in [7] it was 3.26 µM.
As to `CN(C)CCC(=O)c1ccccc1`, the TGI is above 61.4 µM in assay [1]; above 67.4 µM in assay [2]; 44.2 µM in assay [3]; 46.9 µM in [4]; above 70.3 µM in assay [10]; above 68.8 µM in assay [9]. Also, the TGI in assay [5] was above 59 µM; in assay [6], above 69.2 µM; in assay [7], above 68.8 µM.
Regarding `COc1ccc2cc(/C=N/NC(=O)Nc3ccccc3)ccc2c1`, the TGI in assay [1], in assay [8], in [4], in assay [5] and in [7] was above 100 µM throughout.
On to `COc1ccc(/C=C2\N=C(SC)N(CN3CCOCC3)C2=O)cc1`, for which the TGI in assay [1], in [8], in assay [2], in assay [3], in [4] and in [9] was above 100 µM in each case. Moreover, the TGI in [6] and in assay [7] was above 100 µM each time.
On to `O=C(Cn1c[n+](CC(=O)c2ccc(-c3ccccc3)cc2)c2ccccc21)Nc1cccc2cccnc12`, for which the GI50 was 1.51 µM in [2]; 9.63 µM in [4]; 1.62 µM in assay [10]; 1.63 µM in assay [9]; 1.28 µM in assay [5]; 3.06 µM in assay [6]. In addition, the TGI in assay [2] was determined as 2.83 µM; in assay [4] it was 30.9 µM; in [10] it was 3.06 µM; in assay [9] it was 4.13 µM; in [5], 2.78 µM; in [6] it was 10.7 µM.
For the molecule `CCOC(=O)CN1C(=O)c2ccc(NC(=O)C(=O)O)cc2S1(=O)=O`, the TGI in assay [1], in assay [8], in [2], in assay [3], in [4] and in assay [9] was above 100 µM in each case. Further, the TGI in [5], in assay [6] and in assay [7] was above 100 µM in each case.
For the molecule `CC(C)C(=O)OCC1OC(n2c(Br)nc3c(=O)[nH]c(N)nc32)C(OC(=O)C(C)C)C1OC(=O)C(C)C` (stereo not drawn), the TGI is above 100 µM in [8]; 65.3 µM in assay [3]; above 100 µM in assay [4]; above 100 µM in assay [9]; above 100 µM in assay [5]; above 100 µM in assay [6]. This molecule also showed a TGI in assay [7] above 100 µM.
In the case of `Cn1c(=O)c2c(nc(Cc3ccccc3)n2CC(=O)O)n(C)c1=O`, the TGI in assay [1], in [2], in assay [3], in assay [4], in [9] and in [5] was above 100 µM throughout. In [6], this molecule came in with a TGI above 100 µM.
Take `O=C1C(c2c(O)[nH]c3ccc(F)cc23)=Nc2ccccc21`: the TGI in [1], in assay [8], in assay [2], in [3], in assay [4] and in assay [9] was above 100 µM throughout. For the same molecule, the TGI is above 100 µM in assay [5], above 100 µM in [6] and 24.9 µM in assay [7].
Consider `COc1ccc(P2(=S)OC(C)(C)C(C)(C)O2)cc1`, for which the TGI in assay [1], in assay [8], in assay [2], in assay [3], in assay [4] and in [10] was above 100 µM throughout. In addition, the TGI in assay [9], in assay [5] and in assay [6] was above 100 µM each time.
In the case of `Cn1c(=O)n(C2(C)C[Se]C2)c2ccccc21`, the TGI in assay [1], in [2], in assay [3], in assay [4], in assay [10] and in assay [9] was above 100 µM each time. Further, the TGI in assay [5], in assay [6] and in assay [7] was above 100 µM throughout.
For `CC1CCC(C(C)C)C(OC(=O)NCn2cc(-c3ccccc3)nn2)C1` (stereo not drawn), the TGI in assay [1], in [8], in [2], in assay [3], in [4] and in assay [10] was above 100 µM each time. Moreover, the TGI in assay [9], in assay [5] and in assay [6] was above 100 µM in each case.
As for `COC(=O)c1ccccc1/C=C1\Cc2ccc(C)c(C)c2C1=O`, the TGI in assay [1], in assay [8], in [2], in assay [3], in assay [4] and in assay [10] was above 100 µM throughout. Moreover, the TGI in assay [9], in [5] and in assay [6] was above 100 µM throughout.
Turning to `O=[N+]([O-])c1ccc2c(c1)C1=C(CO2)Cc2ccccc2O1`, the TGI in assay [1] is 39.3 µM; in assay [3], 39.9 µM; in [4], 31.2 µM; in assay [10] it was 52.2 µM; in assay [9], above 100 µM; in assay [5] it was 33.5 µM. For the same molecule, the figures for the TGI in assay [6] and in assay [7] were 29.9 µM and above 100 µM, respectively.
For `O=C(Nc1nc(C23CC4CC(CC(C4)C2)C3)cs1)c1cc2ccc(O)cc2oc1=O`, the TGI came out at 29.9 µM in assay [1]; 61.3 µM in assay [8]; 47 µM in [2]; 23.8 µM in assay [3]; 47.6 µM in [4]; 86.6 µM in assay [10]. Also, the TGI was found to be 43.3 µM in assay [9], 44.1 µM in [5] and 64.3 µM in assay [6].
In the case of `NNC(=O)c1n[nH]nc1C(=O)NN`, the TGI in assay [1] was above 100 µM; in assay [8], above 100 µM; in assay [3] it was 28.8 µM; in assay [4] it was above 100 µM; in [5], above 100 µM.
As to `CN(C)C1(N(C)C)Oc2c(c(=O)n(C)c(=O)n2C)C(c2ccccc2)C1(F)F` (stereo not drawn), the TGI in assay [1], in assay [8], in assay [2], in [3], in [4] and in assay [9] was above 100 µM each time. Also, the TGI in assay [5], in assay [6] and in assay [7] was above 100 µM throughout.
With `c1ccc(CCNc2ccccn2)nc1`, the TGI in assay [1], in [8], in assay [2], in assay [3], in [4] and in assay [9] was above 100 µM each time. The TGI in [5], in assay [6] and in assay [7] was above 100 µM throughout.
As to `Nc1ncnc2c1ncn2[C@@H]1C[C@@H]1CO`, the TGI in [1], in [8], in [3], in assay [4], in [10] and in [9] was above 100 µM in each case. Also, the TGI in [5] and in assay [6] was above 100 µM throughout.
